According to paper PMC3131257, “Hypericum lanceolatum (Hypericaceae) as a potential source of new anti-malarial agents: a bioassay-guided fractionation of the stem bark” (Malaria Journal, 2011):
Converted amounts (≈) assume the structure as drawn. Counter-ions that a name gives are not always drawn. Like-named read-outs stand apart in the source and are kept apart here.

Key:
[1] = tested on: field isolate (SHF4) of Plasmodium falciparum; assay: anti-plasmodial drug sensitivity assay, pLDH method, SHF4 field isolate; assay type: cell-based; conditions: for IC50: Plasmodium falciparum, pure compounds, pLDH assay
Experimental: (§1) The W2mef (MRA-615) strain was ordered from the Malaria Research and Reference Reagent Resource Centre (MR4, Manassas, VA, USA), and maintained in continuous culture. The SHF4 field isolate previously isolated from a malaria patient in Buea in the South West region of Cameroon, had been stored in liquid nitrogen at the Biotechnology Unit, University of Buea.
(§2) The field isolate and the laboratory strain of P. falciparum were grown and maintained in culture using the method of Trager and Jensen with some modification. All the chemicals except Albumax II (Gibco; Invitrogen, USA), were ordered from Sigma-Aldrich Inc (Germany). Cultures consisted of a 4% haematocrit suspension of O+ human erythrocytes in RPMI 1640 medium supplemented with a gentamicin solution at 0.01 mg/mL, 25 mM HEPES buffer, 25 mM NaHCO3, and 1% Albumax II. Cultures were fed with a gas mixture consisting of 5% CO2 and incubated at 37°C (CO2 incubator Heraeus, Hera cell 150; USA). The estimation of the parasitaemia as well as parasite visualization before incubation was done using both fluorescence (Acridine Orange) and normal light (Giemsa stain) microscopes.
(§3) The drug sensitivity assay was carried out in 96-well microtitration plates as described by Desjardins et al with some modifications. All stock solutions were sterilized by passing them through a 0.2 μm syringe filter and stored at -20°C until required. Similarly, a 2 μg/mL stock solution of quinine dihydrochloride (Rotexmedica, Trittau, Germany) was prepared and used as positive control. The parasitaemia was measured using the parasite lactate dehydrogenase (pLDH) assay.
(§4) The pLDH assay generates optical density (OD) values at various concentrations of the drug as raw data. OD values from control wells represent the maximum amount of pLDH produced by parasites and OD values from blank wells (containing a 4% suspension of non parasitized red blood cells in malaria culture medium) represented background pLDH activity. A 100% growth value, which corresponds to maximum LDH activity, was obtained by subtracting the mean OD value of blank wells from that of control wells. Likewise, the growth value at each concentration of the drug was obtained by adjusting OD values from drug-treated wells for background pLDH activity (parasite-free red blood cells). These values were then expressed as a percentage of the maximal growth value and plotted against corresponding concentrations of the drug using the software HN-NonLin V1.1 [14] to generate log dose-response curves from which the 50%, 90%, 95% and 99% Inhibitory Concentrations (IC50, IC90, IC95 and IC99 respectively) were obtained. Each product was tested in triplicate in each of the two separate experiments, giving a total of six repeats per product and per concentration tested. The IC50 values obtained from these replicates were pooled and expressed as geometric mean IC50 values and the different means compared among themselves by independent samples t-test using SPSS Statistics 17.0 (Chicago, USA).

[2] = cytotoxicity on LLC-MK2 monkey kidney epithelial cells; conditions: monkey, LLC-MK2 monkey kidney epithelial cells, CC50 on LLC-MK2, pure compounds; five days incubation
Experimental: (§5) The cytotoxicity profiles of the extracts and pure compounds were estimated against LLC-MK2 monkey kidney epithelial cells according to the procedure previously described with some modifications. Cells were cultured under the same conditions as P. falciparum. Cells were distributed in 96-well plates at 20,000 cells per well in 100 μL culture medium, and allowed to attach and become confluent, for 24h. The medium was then removed completely the next day and 100 μL of fresh medium was added to all the wells, followed by 100 μL of crude extract (1000 μg/mL) or pure compounds (200 μg/mL) added in triplicate in row H. A two folds serial dilution was made upward to obtain concentration range of 250 - 3.90 μg/ml (crude extract) or 50 - 0.78 μg/ml (pure compounds), cells at row A serving as control without drug. The plates were incubated for five days at 37°C in 5% CO2 in air. Cells concentration and viability in the presence of extracts or pure compounds were compared with that of control cultures without extracts.

[3] = tested on: multidrug-resistant W2mef strain of P. falciparum; assay: microbe, parasite or virus in culture; assay type: cell-based, Plasmodium falciparum
Experimental: as §1, §2, §3, §4

[4] = tested on: W2 strain of P. falciparum; parameters: method as in PMID 18239315; conditions: betulinic acid from Psorospermum glaberrimum; cited from earlier work
neural cells = conditions: in vitro; cited from earlier work
[5] = tested on: LLC-MK2 monkey kidney epithelial cells; assay: cytotoxicity on LLC-MK2 monkey kidney epithelial cells; conditions: pure compounds; five days incubation
Experimental: as §5

[6] = tested on: CQ-resistant K1 P. falciparum; conditions: betulinic acid from Uapaca nitida root bark; cited from earlier work
[7] = tested on: CQ-sensitive T9-96 P. falciparum; conditions: betulinic acid from Uapaca nitida root bark; cited from earlier work
K1 = conditions: against K1; cited from earlier work
P. falciparum = tested on: P. falciparum; parameters: method as in PMID 9581528; conditions: growth of P. falciparum; cited from earlier work
[8] = Plasmodium falciparum, read-out: IC50 on W2mef, pure compounds, pLDH assay
[9] = Plasmodium falciparum, read-out: IC50 on W2mef, pure compounds, values expressed in μg/mL (Table 2 footnote *, text b34)
[10] = read-out: IC50 on W2mef, pure compounds, pLDH assay

Molecule `COc1ccc2c(=O)c3cccc(O)c3oc2c1` [HLT3, 5-hydroxy-3-methoxyxanthone] has an IC50 [1] of 1.43 ± 0.48 µM, a CC50 at 5 days [2] greater than 100 µg/mL and an IC50 [3, 8] of less than 5 µM. For the same molecule, the IC50 [3, 9] was less than 5 µg/mL and the IC50 [3, 10] was 3.26 ± 0.08 µM.

For `C=C(C)[C@@H]1CC[C@]2(C(=O)O)CC[C@]3(C)[C@H](CC[C@@H]4[C@@]5(C)CC[C@H](O)C(C)(C)[C@@H]5CC[C@]43C)[C@@H]12` [HLT1, 3-hydroxy-lup-20(29)-en-28-oic acid], the IC50 [4] is given as 5.1 µM, the “cytotoxic activity against neural cells (in words)” value (neural cells) is given as “no significant cytotoxic activity” and the IC50 [1] is given as 5.6 ± 0.13 µM. The “CC50 on LLC-MK2” value [5] was 25.00 ± 0.00 µg/mL (≈ 54.7 µM), the IC50 [3, 8] was less than 5 µM and the IC50 [3, 9] was less than 5 µg/mL. The IC50 [3, 10] was 4.5 ± 1.35 µM, the IC50 [6] was 19.6 µg/mL (≈ 42.9 µM) and the IC50 [7] was 25.9 µg/mL (≈ 56.7 µM).

For `COc1cccc2c(=O)c3ccc(O)cc3oc12` [HLT4, 3-hydroxy-5-methoxyxanthone], the IC50 [1] was 34.09 ± 0.12 µM, the “anti-plasmodial activity (in words)” value ([1]; against the field isolate) was “inactive” and the “CC50 on LLC-MK2” value [5] was 12.50 ± 0.00 µg/mL (≈ 51.6 µM). The CC50 at 5 days [2] was 10 to 30 µg/mL (≈ 41.3 to 124 µM), the IC50 [3, 8] was 33.84 ± 0.2 µM and the “anti-plasmodial activity (in words)” value ([3]; against W2mef) was “inactive”.

For 6-hydroxyluteolin-7-O-(1^2-a-rhamnoside, the IC50 (K1) is given as 2.13 µg/mL.

Molecule `O=C(c1cc(O)ccc1O)c1c(O)cccc1O` [HLT2, 2,2',5,6'-tetrahydroxybenzophenone] has an IC50 [1] of 13.4 ± 0.16 µM, a CC50 at 5 days [2] greater than 100 µg/mL and an IC50 [3, 8] of 55.1 ± 0.93 µM.

For garciniaxanthone, the IC50 (P. falciparum) is given as 0.96 µg/mL.

For `C=C[C@H]1C[N@@]2CC[C@H]1C[C@H]2[C@H](O)c1ccnc2ccc(OC)cc12` [QN, quinine dihydrochloride, reference compound], the IC50 [1] was 0.14 ± 0.05 µM, the IC50 [3, 8] was 0.27 ± 0.04 µM and the IC50 ([3]; Plasmodium falciparum, read-out: IC50 on W2mef, sub-extracts and fractions, pLDH assay) was 0.27 ± 0.04 µg/mL.
